Like-named read-outs stand apart in the source and are kept apart here.
How the values were obtained:
[1] = tested on: UACC-62; experiment: NCI in vitro disease-oriented tumor cells screen; format: cell-based, human; conditions: Melanoma UACC-62, Table 2, average of at least two testings; for GI50: Homo sapiens, read-out: Cytotoxicity log GI50 (converted)
Source text: (§1) (Activity is defined as log GI50<−4 where GI50 is the molar concentration causing 50% cell growth inhibition).

[2] = tested on: human tumor cell lines
Source text: as §1

[3] = tested on: M14; experiment: NCI in vitro disease-oriented tumor cells screen; format: cell-based, human; conditions: Melanoma M14, Table 2, average of at least two testings; for GI50: Homo sapiens, read-out: Cytotoxicity log GI50 (converted)
Source text: as §1

[4] = tested on: NCI-H23; experiment: NCI in vitro disease-oriented tumor cells screen; format: cell-based, human; conditions: Non-Small Cell Lung Cancer NCI-H23, Table 2 (numbering of Examples 1-13), average of at least two testings; for GI50: Homo sapiens, read-out: Cytotoxicity log GI50 (converted)
Source text: as §1

[5] = tested on: SK-MEL-28; experiment: NCI in vitro disease-oriented tumor cells screen; format: cell-based, human; conditions: Melanoma SK-MEL-28, Table 2, average of at least two testings; for GI50: Homo sapiens, read-out: Cytotoxicity log GI50 (converted)
Source text: as §1

[6] = tested on: BT-549; experiment: NCI in vitro disease-oriented tumor cells screen; format: cell-based, human; conditions: Breast Cancer BT-549, Table 2, average of at least two testings; for GI50: Homo sapiens, read-out: Cytotoxicity log GI50 (converted)
Source text: as §1

[7] = tested on: MDA-MB-435; experiment: NCI in vitro disease-oriented tumor cells screen; format: cell-based, human; conditions: Breast Cancer MDA-MB-435, Table 2 (numbering of Examples 1-13), average of at least two testings; for GI50: Homo sapiens, read-out: Cytotoxicity log GI50 (converted)
Source text: as §1

[8] = tested on: OVCAR-3; experiment: NCI in vitro disease-oriented tumor cells screen; format: cell-based, human; conditions: Ovarian Cancer OVCAR-3, Table 2 (numbering of Examples 1-13), average of at least two testings; for GI50: Homo sapiens, read-out: Cytotoxicity log GI50 (converted)
Source text: as §1

[9] = tested on: human tumor cell lines; experiment: NCI in vitro screen, mean over all cell lines tested; conditions: for GI50: Homo sapiens, read-out: Cytotoxicity log GI50, Mean Value (converted); for Cytotoxicity log GI50, Mean Value: Mean value over all cell lines tested (58 human tumor cell lines), Table 2 (numbering of Examples 1-13)
Source text: as §1

[10] = tested on: MALME-3M; experiment: NCI in vitro disease-oriented tumor cells screen; format: cell-based, human; conditions: Melanoma MALME-3M, Table 2, average of at least two testings; for GI50: Homo sapiens, read-out: Cytotoxicity log GI50 (converted)
Source text: as §1

[11] = tested on: SK-MEL-2; experiment: NCI in vitro disease-oriented tumor cells screen; format: cell-based, human; conditions: Melanoma SK-MEL-2, Table 2, average of at least two testings; for GI50: Homo sapiens, read-out: Cytotoxicity log GI50 (converted)
Source text: as §1

[12] = tested on: SK-MEL-5; experiment: NCI in vitro disease-oriented tumor cells screen; format: cell-based, human; conditions: Melanoma SK-MEL-5, Table 2 (numbering of Examples 1-13), average of at least two testings; for GI50: Homo sapiens, read-out: Cytotoxicity log GI50 (converted)
Source text: as §1

[13] = tested on: NCI-H522; experiment: NCI in vitro disease-oriented tumor cells screen; format: cell-based, human; conditions: Non-Small Cell Lung Cancer NCI-H522, Table 2, average of at least two testings; for GI50: Homo sapiens, read-out: Cytotoxicity log GI50 (converted)
Source text: as §1

[14] = tested on: HS 578T; experiment: NCI in vitro disease-oriented tumor cells screen; format: cell-based, human; conditions: Breast Cancer HS 578T, Table 2, average of at least two testings; for GI50: Homo sapiens, read-out: Cytotoxicity log GI50 (converted)
Source text: as §1

[15] = tested on: OVCAR-8; experiment: NCI in vitro disease-oriented tumor cells screen; format: cell-based, human; conditions: Ovarian Cancer OVCAR-8, Table 2, average of at least two testings; for GI50: Homo sapiens, read-out: Cytotoxicity log GI50 (converted)
Source text: as §1

[16] = tested on: HL-60(TB); experiment: NCI in vitro disease-oriented tumor cells screen; format: cell-based, human; conditions: Leukemia HL-60(TB), Table 2, average of at least two testings; for GI50: Homo sapiens, read-out: Cytotoxicity log GI50 (converted)
Source text: as §1

[17] = tested on: LOX IMVI; experiment: NCI in vitro disease-oriented tumor cells screen; format: cell-based, human; conditions: Melanoma LOX IMVI, Table 2 (numbering of Examples 1-13), average of at least two testings; for GI50: Homo sapiens, read-out: Cytotoxicity log GI50 (converted)
Source text: as §1

[18] = tested on: MDA-N; experiment: NCI in vitro disease-oriented tumor cells screen; format: cell-based, human; conditions: Breast Cancer MDA-N, Table 2 (numbering of Examples 1-13), average of at least two testings; for GI50: Homo sapiens, read-out: Cytotoxicity log GI50 (converted)
Source text: as §1

[19] = tested on: UACC-257; experiment: NCI in vitro disease-oriented tumor cells screen; format: cell-based, human; conditions: Melanoma UACC-257, Table 2, average of at least two testings; for GI50: Homo sapiens, read-out: Cytotoxicity log GI50 (converted)
Source text: as §1

Structure (SMILES) | GI50 [1] [nM] | GI50 [3] [nM] | GI50 [4] [nM] | GI50 [5] [nM] | GI50 [6] [nM] | GI50 [7] [nM] | GI50 [8] [nM] | GI50 [9] [nM] | GI50 [10] [nM] | GI50 [11] [nM] | GI50 [12] [nM] | GI50 [13] [nM] | GI50 [14] [nM] | GI50 [15] [nM] | GI50 [16] [nM] | GI50 [17] [nM] | GI50 [18] [nM] | GI50 [19] [nM] | Cytotoxicity log GI50 [1] [M] | Cytotoxicity log GI50 [3] [M] | other results
CC(=O)OC(C)c1cc2c(s1)C(=O)c1ccsc1C2=O (stereo not drawn) [Compound 11, 2-(1′-Acetoxyethyl)-4,8-dihydrobenzo[1,2-b:4,5-b′]dithiophene-4,8-dione] | 17 | 12.9 | 11.2 | 19.1 | 45.7 | < 10 | < 10 | 39.8 | < 10 | 26.3 | 13.5 | 148 | 155 | 36.3 | < 10 | < 10 | < 10 | 25.1 |  |  | Cytotoxicity log GI50, Mean Value ([2]; human): −7.40 M
CC(=O)c1cc2c(s1)C(=O)c1c(C(C)=O)csc1C2=O [Compound 13, 2,7-Diacetyl-4,8-dihydrobenzo[1,2-b:4,5-b′]dithiophene-4,8-dione] | 1950 | 1510 | 1320 | 1780 | 1740 | 178 | 229 | 1170 | 1320 | 1740 | 1200 | 525 | 2400 | 1450 | 52.5 | 1050 | 174 | 562 |  |  | overall cytotoxicity / potency (in words) [2]: less active in all cell lines
CC(=O)c1cc2c(s1)C(=O)c1sccc1C2=O [Compound 19, 2-Acetyl-4,8-dihydrobenzo[1,2-b:5,4-b′]dithiophene-4,8-dione] | 17 | 17.4 | 18.2 | < 10 | 17.8 | < 10 | < 10 | 46.8 | 16.2 | 33.1 | < 10 | 17.4 | 36.3 | 30.9 |  | < 10 | < 10 | 13.8 |  |  | 
CC(=O)c1cc2c(s1)C(=O)c1sc(C(C)=O)cc1C2=O [Compound 23] |  |  |  |  |  |  |  |  |  |  |  |  |  |  |  |  |  |  | −6.63 | −6.36 | Cytotoxicity log GI50 [4]: −6.54 M; Cytotoxicity log GI50 [5]: −6.69 M; Cytotoxicity log GI50 [6]: −6.04 M; Cytotoxicity log GI50 [7]: −6.64 M; Cytotoxicity log GI50 [8]: −7.53 M; Cytotoxicity log GI50, Mean Value [9]: −6.47 M; Cytotoxicity log GI50 [10]: −6.65 M; Cytotoxicity log GI50 [11]: −6.79 M; Cytotoxicity log GI50 [12]: −6.50 M; Cytotoxicity log GI50 [13]: −6.42 M; Cytotoxicity log GI50 [14]: −6.55 M; Cytotoxicity log GI50 [15]: −6.64 M; Cytotoxicity log GI50 [17]: −7.65 M; Cytotoxicity log GI50 [18]: −6.71 M; Cytotoxicity log GI50 [19]: −6.78 M
CC(O)c1cc2c(s1)C(=O)c1sc(C(C)O)cc1C2=O (stereo not drawn) [Compound 24] |  |  |  |  |  |  |  |  |  |  |  |  |  |  |  |  |  |  | −6.61 | −6.81 | Cytotoxicity log GI50 [4]: −6.72 M; Cytotoxicity log GI50 [5]: −6.63 M; Cytotoxicity log GI50 [6]: −6.71 M; Cytotoxicity log GI50 [7]: −6.80 M; Cytotoxicity log GI50 [8]: −6.44 M; Cytotoxicity log GI50, Mean Value [9]: −6.32 M; Cytotoxicity log GI50 [10]: −6.82 M; Cytotoxicity log GI50 [11]: −6.69 M; Cytotoxicity log GI50 [12]: −6.85 M; Cytotoxicity log GI50 [13]: −6.40 M; Cytotoxicity log GI50 [14]: −6.50 M; Cytotoxicity log GI50 [15]: −6.58 M; Cytotoxicity log GI50 [16]: −6.36 M; Cytotoxicity log GI50 [17]: −6.92 M; Cytotoxicity log GI50 [18]: −6.83 M; Cytotoxicity log GI50 [19]: −6.79 M
